Key:
DLD-1 = assay: MTS assay, DLD-1 cells; type: cell-based; details: Homo sapiens, 72 hours, read-out: DLD-1, MTS cell kill % inhibition
Procedure, shortened: (§1)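 First, seed 3000 cells per well in low-serum (1% FBS) DMEM and culture 18 h. Next, add compounds prepared at 300× in DMSO and diluted 1:40 in DMEM; incubate 72 h. Finally, add MTS/PMS for 4 h and measure absorbance at 492 nm.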

MDA-MB-231 = assay: MTS assay, MDA-MB-231 cells; type: cell-based; details: Homo sapiens, 72 hours, read-out: MDA-MB-231, MTS cell kill % inhibition
Procedure, shortened: as §1

IGF-1R = IGF-1R (Homo sapiens, UniProt P08069); assay: IGFR1 activity assay (ELISA); type: biochemical; details: read-out: IGF-1R, PCT INH (30 μM), ELISA
Chain of IGF-1R (P08069 31-1367): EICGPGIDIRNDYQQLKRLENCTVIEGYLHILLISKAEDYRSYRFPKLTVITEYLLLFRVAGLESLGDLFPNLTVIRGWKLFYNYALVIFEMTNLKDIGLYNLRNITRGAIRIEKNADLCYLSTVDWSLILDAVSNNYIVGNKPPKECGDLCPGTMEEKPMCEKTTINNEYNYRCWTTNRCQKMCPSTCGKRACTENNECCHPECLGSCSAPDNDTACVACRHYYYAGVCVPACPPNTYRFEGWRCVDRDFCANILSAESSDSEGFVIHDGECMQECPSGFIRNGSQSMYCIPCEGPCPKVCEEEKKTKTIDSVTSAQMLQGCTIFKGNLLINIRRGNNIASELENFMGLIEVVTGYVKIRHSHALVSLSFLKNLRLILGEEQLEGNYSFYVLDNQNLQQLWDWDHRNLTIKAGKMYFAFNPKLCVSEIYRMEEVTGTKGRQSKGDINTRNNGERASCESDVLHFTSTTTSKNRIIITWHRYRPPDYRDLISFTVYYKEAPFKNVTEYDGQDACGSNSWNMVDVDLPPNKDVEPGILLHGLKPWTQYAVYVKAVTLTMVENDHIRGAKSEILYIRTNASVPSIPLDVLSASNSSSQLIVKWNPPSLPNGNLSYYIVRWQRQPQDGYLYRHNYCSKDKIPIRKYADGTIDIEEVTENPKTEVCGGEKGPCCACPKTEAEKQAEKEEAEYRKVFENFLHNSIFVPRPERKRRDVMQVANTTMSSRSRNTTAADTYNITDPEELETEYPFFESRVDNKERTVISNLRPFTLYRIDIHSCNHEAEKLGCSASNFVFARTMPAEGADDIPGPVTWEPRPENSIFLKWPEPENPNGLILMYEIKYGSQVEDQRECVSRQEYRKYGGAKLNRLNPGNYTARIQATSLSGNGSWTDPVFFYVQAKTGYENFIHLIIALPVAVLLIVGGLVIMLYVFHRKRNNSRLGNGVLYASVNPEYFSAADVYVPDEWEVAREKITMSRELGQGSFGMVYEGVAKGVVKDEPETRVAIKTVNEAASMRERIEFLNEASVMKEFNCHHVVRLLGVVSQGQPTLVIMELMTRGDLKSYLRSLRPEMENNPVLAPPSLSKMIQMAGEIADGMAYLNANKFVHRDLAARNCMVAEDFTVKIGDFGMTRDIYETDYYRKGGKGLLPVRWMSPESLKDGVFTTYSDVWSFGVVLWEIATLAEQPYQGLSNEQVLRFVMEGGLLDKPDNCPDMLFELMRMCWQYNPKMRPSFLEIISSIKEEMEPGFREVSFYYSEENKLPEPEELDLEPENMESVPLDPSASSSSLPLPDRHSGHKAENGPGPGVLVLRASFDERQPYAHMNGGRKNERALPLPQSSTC
Procedure, shortened: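 IGF1R (0.33 ng/μL final) phosphorylating Pyk-2 (0.05 ng/μL final) in buffer with 12.5 μM ATP, 10 mM MgCl2, 1 h room temperature. Product captured on streptavidin plates, detected with anti-phosphotyrosine and alkaline phosphatase secondary antibody, Attophos fluorescent readout.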

KATO III = assay: MTS assay, KATO III cells; type: cell-based; details: Homo sapiens, 72 hours, read-out: KATO III, MTS cell kill % inhibition
Procedure, shortened: as §1

NCI-H1299 = assay: MTS assay, NCI-H1299 cells; type: cell-based; details: Homo sapiens, 72 hours, read-out: NCI-H1299, MTS cell kill % inhibition
Procedure, shortened: as §1

inhibition at 30 µM (IGF-1R)	melting point	Compound	inhibition at 10 µM (DLD-1)	inhibition at 10 µM (MDA-MB-231)	inhibition at 10 µM (KATO III)	inhibition at 10 µM (NCI-H1299)
< 50%	147 to 153 °C	O=C(NCCOc1ccccc1)c1ccc2[nH]c(-c3ccc[nH]c3=O)c(-c3ccc(-c4ccccc4)cc3)c2c1 [Compound 51, 3-biphenyl-4-yl-2-(2-oxo-1,2-dihydropyridin-3-yl)-N-(2-phenoxyethyl)-1H-indole-5-carboxamide]	< 50%	50 to 79%	< 50%	< 50%
< 50%	160 to 166 °C	CN(C)CCCNCc1ccc2[nH]c(-c3ccc[nH]c3=O)c(-c3ccc(-c4ccccc4)cc3)c2c1 [Compound 54, 3-[3-biphenyl-4-yl-5-({[3-(dimethylamino)propyl]amino}methyl)-1H-indol-2-yl]pyridin-2(1H)-one]	50 to 79%	50 to 79%	< 50%	< 50%
80 to 100%	138 to 142 °C	O=C(NCCCN1CCOCC1)c1ccc2[nH]c(-c3ccc[nH]c3=O)c(Br)c2c1 [Compound 56, 3-bromo-N-(3-morpholin-4-ylpropyl)-2-(2-oxo-1,2-dihydropyridin-3-yl)-1H-indole-5-carboxamide]	< 50%	< 50%	< 50%	< 50%
80 to 100%	121 to 123 °C	O=C(NCCCN1CCOCC1)c1ccc2[nH]c(-c3ccc[nH]c3=O)c(-c3ccc(Oc4ccccc4)cc3)c2c1 [Compound 57, N-(3-morpholin-4-ylpropyl)-2-(2-oxo-1,2-dihydropyridin-3-yl)-3-(4-phenoxyphenyl)-1H-indole-5-carboxamide]	80 to 100%	80 to 100%	80 to 100%	80 to 100%
50 to 79%	135 to 138 °C	O=C(NCCCN1CCOCC1)c1ccc2[nH]c(-c3ccc[nH]c3=O)c(-c3ccc(Cl)c(Cl)c3)c2c1 [Compound 59, 3-(3,4-dichlorophenyl)-N-(3-morpholin-4-ylpropyl)-2-(2-oxo-1,2-dihydropyridin-3-yl)-1H-indole-5-carboxamide]	50 to 79%	< 50%	80 to 100%	50 to 79%
80 to 100%	143 to 145 °C	CCc1ccc(-c2c(-c3ccc[nH]c3=O)[nH]c3ccc(C(=O)NCCCN4CCOCC4)cc23)cc1 [Compound 65, 3-(4-ethylphenyl)-N-(3-morpholin-4-ylpropyl)-2-(2-oxo-1,2-dihydropyridin-3-yl)-1H-indole-5-carboxamide]	80 to 100%	50 to 79%	80 to 100%	80 to 100%
80 to 100%	140 to 143 °C	CC(C)Oc1ccc(-c2c(-c3ccc[nH]c3=O)[nH]c3ccc(C(=O)NCCCN4CCOCC4)cc23)cc1 [Compound 66, 3-(4-isopropoxyphenyl)-N-(3-morpholin-4-ylpropyl)-2-(2-oxo-1,2-dihydropyridin-3-yl)-1H-indole-5-carboxamide]	50 to 79%	80 to 100%	80 to 100%	80 to 100%
80 to 100%	115 to 120 °C	Cc1cc(C)cc(-c2c(-c3ccc[nH]c3=O)[nH]c3ccc(C(=O)NCCCN4CCOCC4)cc23)c1 [Compound 70, 3-(3,5-dimethylphenyl)-N-(3-morpholin-4-ylpropyl)-2-(2-oxo-1,2-dihydropyridin-3-yl)-1H-indole-5-carboxamide]	80 to 100%	80 to 100%	80 to 100%	80 to 100%
80 to 100%	152 to 154 °C	Cc1ccc(-c2c(-c3ccc[nH]c3=O)[nH]c3ccc(C(=O)NCCCN4CCOCC4)cc23)cc1 [Compound 72, 3-(4-methylphenyl)-N-(3-morpholin-4-ylpropyl)-2-(2-oxo-1,2-dihydropyridin-3-yl)-1H-indole-5-carboxamide]	50 to 79%	< 50%	80 to 100%	80 to 100%
80 to 100%	120 to 122 °C	Cc1cccc(-c2c(-c3ccc[nH]c3=O)[nH]c3ccc(C(=O)NCCCN4CCOCC4)cc23)c1 [Compound 78, 3-(3-methylphenyl)-N-(3-morpholin-4-ylpropyl)-2-(2-oxo-1,2-dihydropyridin-3-yl)-1H-indole-5-carboxamide]	50 to 79%	< 50%	< 50%	50 to 79%
80 to 100%	143 to 145 °C	CCOc1ccc(-c2c(-c3ccc[nH]c3=O)[nH]c3ccc(C(=O)NCCCN4CCOCC4)cc23)cc1 [Compound 79, 3-(4-ethoxyphenyl)-N-(3-morpholin-4-ylpropyl)-2-(2-oxo-1,2-dihydropyridin-3-yl)-1H-indole-5-carboxamide]	80 to 100%	80 to 100%	80 to 100%	80 to 100%
80 to 100%	240 to 242 °C	O=c1[nH]cccc1-c1[nH]c2ccccc2c1-c1ccccc1 [Compound 84, 3-(3-phenyl-1H-indol-2-yl)pyridin-2(1H)-one]	50 to 79%	50 to 79%	80 to 100%	50 to 79%

Compound	inhibition at 30 µM (IGF-1R)	melting point	inhibition at 10 µM (DLD-1)	inhibition at 10 µM (MDA-MB-231)	inhibition at 10 µM (KATO III)	inhibition at 10 µM (NCI-H1299)
O=c1[nH]cccc1-c1[nH]c2ccccc2c1C1CCN(Cc2cccc3ccccc23)CC1 [Compound 88, 3-{3-[1-(1-naphthylmethyl)piperidin-4-yl]-1H-indol-2-yl}pyridin-2(1H)-one]	< 50%	205 to 206 °C	80 to 100%	80 to 100%	< 50%	< 50%

Reference: patent publication US8410144B2, “Substituted indolo-pyridinone compounds” (ArQule, Inc., priority 2009, dated 2013)
